According to patent publication US5710154A, “Tetrahydrofuran antifungals” (Schering Corporation, priority 1995, dated 1998):

Assays:
[1] = Serum half life and tissue distribution following O.D. dosing; type: in vivo, mice, rats, dogs and monkeys
[2] = Serum levels following oral dosing, dogs; type: in vivo; conditions: methyl cellulose formulation, compared to azoles of similar structure
[3] = Serum levels following oral dosing, rats; type: in vivo; conditions: methyl cellulose formulation, compared to azoles of similar structure
[4] = Serum levels following oral dosing, monkeys; type: in vivo; conditions: methyl cellulose formulation, compared to azoles of similar structure
[5] = Serum levels following oral dosing, mice; type: in vivo; conditions: methyl cellulose formulation, compared to azoles of similar structure
Candida albicans = experiment: In vitro antifungal activity, broth dilution (MIC/MFC), Candida albicans; type: cell-based; conditions: 26 strains
Method: (§1) The in vitro antifungal activity tests were performed via conventional broth dilution methods in Sabouraud dextrose broth ("SDB") medium and Eagles Minimum Essential Medium ("EMEM") against a large number of fungi. Minimum Inhibitory Concentrations ("MICs") were measured after 24, 48 and 72 hour tests. In many cases, Minimum Fungicidial Concentrations ("MFCS") were measured after 48 and 72 hours.

Aspergillus = experiment: In vitro antifungal activity, broth dilution (MIC/MFC), Aspergillus; type: cell-based, Aspergillus (flavus, fumigatus and other species); conditions: 37 strains
Method: as §1

Candida glabrata = experiment: In vitro antifungal activity, broth dilution (MIC/MFC), Candida glabrata; type: cell-based; conditions: 9 strains
Method: as §1

Candida krusei = experiment: In vitro antifungal activity, broth dilution (MIC/MFC), Candida krusei; type: cell-based; conditions: 16 strains
Method: as §1

[6] = test system: Candida tropicalis & stellatoidea; experiment: In vitro antifungal activity, broth dilution (MIC/MFC), Candida tropicalis & stellatoidea; type: cell-based; conditions: 5 strains
Method: as §1

Dermatophytes = experiment: In vitro antifungal activity, broth dilution (MIC/MFC), dermatophytes; type: cell-based, T. rubrum, T. mentagrophytes, and T. tonsurans; conditions: 6 strains
Cryptococcus neoformans = experiment: In vitro antifungal activity, broth dilution (MIC/MFC), Cryptococcus neoformans; type: cell-based; conditions: 3 strains
Method: as §1

SMILES	Percentage of strains with MFCs ≤1 mcg/ml (Candida albicans) [%]	Percentage of strains with MFCs ≤1 mcg/ml (Aspergillus) [%]	Percentage of strains with MFCs ≤1 mcg/ml (Candida glabrata) [%]	Percentage of strains with MFCs ≤1 mcg/ml (Candida krusei) [%]	Percentage of strains with MFCs ≤1 mcg/ml [6] [%]	Percentage of strains with MFCs ≤1 mcg/ml (Dermatophytes) [%]	Percentage of strains with MFCs ≤1 mcg/ml (Cryptococcus neoformans) [%]	MIC 90 (Minimum Inhibitory Concentrations for 90% of the strains) (Candida krusei)	MIC 90 (Minimum Inhibitory Concentrations for 90% of the strains) [6]	MIC 90 (Minimum Inhibitory Concentrations for 90% of the strains) (Dermatophytes)	also measured
CCC(C(C)O)n1ncn(-c2ccc(N3CCN(c4ccc(OCC5COC(Cn6cncn6)(c6ccc(F)cc6F)C5)cc4)CC3)cc2)c1=O (stereo not drawn) [drawing 21]											tissue distribution [1]: good tissue distribution; serum levels [2]: consistently higher serum levels; serum levels [3]: consistently higher serum levels; serum levels [4]: consistently higher serum levels; serum levels [5]: consistently higher serum levels
CCC(C(C)O)n1ncn(-c2ccc(N3CCN(c4ccc(OCC5COC(Cn6cncn6)(c6ccc(F)cc6F)C5)cc4)CC3)cc2)c1=O (stereo not drawn) [drawing 26]	100	50	22	88	100	67	100				
CCC(C(C)O)n1ncn(-c2ccc(N3CCN(c4ccc(OCC5COC(Cn6cncn6)(c6ccc(F)cc6F)C5)cc4)CC3)cc2)c1=O (stereo not drawn) [drawing 27]	100	62	22	94	100	83	100				
CCC(C(C)O)n1ncn(-c2ccc(N3CCN(c4ccc(OCC5COC(Cn6cncn6)(c6ccc(F)cc6F)C5)cc4)CC3)cc2)c1=O (stereo not drawn) [drawing 28]	100	89	22	100	100	100	100				
CCC(C(C)O)n1ncn(-c2ccc(N3CCN(c4ccc(OCC5COC(Cn6cncn6)(c6ccc(F)cc6F)C5)cc4)CC3)cc2)c1=O (stereo not drawn) [drawing 30]								.058 MCG/ML	.117 MCG/ML	.165 MCG/ML	MIC 90 (Minimum Inhibitory Concentrations for 90% of the strains) (Cryptococcus neoformans): .05 MCG/ML
CCC(C(C)O)n1ncn(-c2ccc(N3CCN(c4ccc(OCC5COC(Cn6cncn6)(c6ccc(F)cc6F)C5)cc4)CC3)cc2)c1=O (stereo not drawn) [drawing 31]								.014 MCG/ML	.117 MCG/ML	.101 MCG/ML	MIC 90 (Minimum Inhibitory Concentrations for 90% of the strains) (Candida albicans): .174 MCG/ML; MIC 90 (Minimum Inhibitory Concentrations for 90% of the strains) (Aspergillus): .096 MCG/ML; MIC 90 (Minimum Inhibitory Concentrations for 90% of the strains) (Candida glabrata): 17.1 MCG/ML; MIC 90 (Minimum Inhibitory Concentrations for 90% of the strains) (Cryptococcus neoformans): .007 MCG/ML
CCC(C(C)O)n1ncn(-c2ccc(N3CCN(c4ccc(OCC5COC(Cn6cncn6)(c6ccc(F)cc6F)C5)cc4)CC3)cc2)c1=O (stereo not drawn) [drawing 32]								.12 MCG/ML	.354 MCG/ML	.707 MCG/ML	MIC 90 (Minimum Inhibitory Concentrations for 90% of the strains) (Candida albicans): .139 MCG/ML; MIC 90 (Minimum Inhibitory Concentrations for 90% of the strains) (Aspergillus): .112 MCG/ML; MIC 90 (Minimum Inhibitory Concentrations for 90% of the strains) (Candida glabrata): 28.8 MCG/ML
OC(Cn1cncn1)(Cn1cncn1)c1ccc(F)cc1F [fluconazole, reference compound]	100	0	0	0	100	0	0				Percentage of strains with MICs ≤1 mcg/ml (Candida albicans): 100%; Percentage of strains with MICs ≤1 mcg/ml (Aspergillus): 0%; Percentage of strains with MICs ≤1 mcg/ml (Candida glabrata): 0%; Percentage of strains with MICs ≤1 mcg/ml (Candida krusei): 0%; Percentage of strains with MICs ≤1 mcg/ml [6]: 100%; Percentage of strains with MICs ≤1 mcg/ml (Dermatophytes): 100%; Percentage of strains with MICs ≤1 mcg/ml (Cryptococcus neoformans): 0%
